ChEMBL document CHEMBL1201862, “PubChem BioAssay data set” (2004)
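The compound was tested at five concentrations on cells cultured in 96-well plates, with a 48-hour exposure period. GI50 is the concentration that inhibits growth by half.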 Calls of active or inactive are those of the source. Cut-off read from the data, not from the text of the source: active = GI50 up to about 1.1 µM and inactive = higher.

Assays:
Experiment in all cases: growth of human tumour cells (NCI), 48 h
[1] = test system: A498
[2] = test system: CAKI-1
[3] = test system: EKVX
[4] = test system: HCC 2998
[5] = test system: HCT-116
[6] = test system: HCT-15
[7] = test system: HOP-62
[8] = test system: KM12
[9] = test system: LOX IMVI
[10] = test system: MOLT-4
[11] = test system: Malme-3M
[12] = test system: NCI-H23
[13] = test system: NCI-H522
[14] = test system: OVCAR-4
[15] = test system: SF-295
[16] = test system: SK-MEL-28
[17] = test system: SK-OV-3
[18] = test system: SW-620
[19] = test system: U-251
[20] = test system: UACC-62

Compound | GI50 [1] | GI50 [2] | GI50 [3] | GI50 [4] | GI50 [5] | GI50 [6] | GI50 [7] | GI50 [8] | GI50 [9] | GI50 [10] | GI50 [11] | GI50 [12] | GI50 [13] | GI50 [14] | GI50 [15] | GI50 [16] | GI50 [17] | GI50 [18] | GI50 [19] | GI50 [20]
O=C1c2ccccc2-c2nnc(-c3ccc([N+](=O)[O-])cc3)cc21 | > 10 µM (inactive) | > 10 µM (inactive) | > 10 µM (inactive) | > 10 µM (inactive) | > 10 µM (inactive) | > 10 µM | > 10 µM (inactive) | > 10 µM (inactive) | > 10 µM (inactive) | > 10 µM (inactive) | > 10 µM (inactive) | > 10 µM (inactive) | > 10 µM (inactive) | > 10 µM (inactive) | > 10 µM (inactive) | > 10 µM (inactive) | > 10 µM (inactive) | > 10 µM (inactive) | > 10 µM (inactive) | > 10 µM (inactive)
COc1cc(/C=C/C2=C(C#N)C(=O)OC2(C)C)ccc1O | > 100 µM (inactive) | > 100 µM (inactive) | > 100 µM (inactive) | 71.9 µM (inactive) | 37.9 µM (inactive) | 28 µM | 43.6 µM (inactive) | 30.9 µM (inactive) | 20.7 µM (inactive) | > 100 µM (inactive) | > 100 µM (inactive) | > 100 µM (inactive) | 16.7 µM (inactive) | – | 46.1 µM (inactive) | > 100 µM (inactive) | > 100 µM (inactive) | 35.3 µM (inactive) | 17.4 µM (inactive) | > 100 µM (inactive)
O=C1C2Cc3ccccc3CN2C(=O)N1CN1CCCCC1 (stereo not drawn) | > 100 µM (inactive) | > 100 µM (inactive) | – | > 100 µM (inactive) | – | 43.6 µM | > 100 µM (inactive) | > 100 µM (inactive) | > 100 µM (inactive) | > 100 µM (inactive) | > 100 µM (inactive) | > 100 µM (inactive) | > 100 µM (inactive) | > 100 µM (inactive) | > 100 µM (inactive) | > 100 µM (inactive) | – | 55.6 µM (inactive) | > 100 µM (inactive) | 78 µM (inactive)
O=C(O)c1ccccc1C(=O)c1ccco1 | > 100 µM (inactive) | > 100 µM (inactive) | > 100 µM (inactive) | > 100 µM (inactive) | > 100 µM (inactive) | > 100 µM | > 100 µM (inactive) | > 100 µM (inactive) | > 100 µM (inactive) | > 100 µM (inactive) | > 100 µM (inactive) | > 100 µM (inactive) | > 100 µM (inactive) | > 100 µM (inactive) | > 100 µM (inactive) | > 100 µM (inactive) | – | > 100 µM (inactive) | > 100 µM (inactive) | > 100 µM (inactive)
COC(=O)C1(c2ccc(N(C)C)cc2OC)CCCN(C(=O)Oc2ccccc2[N+](=O)[O-])CCc2c1[nH]c1ccccc21 (stereo not drawn) | > 100 µM (inactive) | > 100 µM (inactive) | > 100 µM (inactive) | > 100 µM (inactive) | > 100 µM (inactive) | – | > 100 µM (inactive) | > 100 µM (inactive) | > 100 µM (inactive) | 16.9 µM (inactive) | > 100 µM (inactive) | > 100 µM (inactive) | > 100 µM (inactive) | – | > 100 µM (inactive) | > 100 µM (inactive) | > 100 µM (inactive) | > 100 µM (inactive) | > 100 µM (inactive) | > 100 µM (inactive)
Oc1ccccc1-c1nn2c(CCCCCCCCc3nnc4sc(-c5ccccc5O)nn34)nnc2s1 | 14.5 µM (inactive) | 5.11 µM (inactive) | 22.4 µM (inactive) | 27.2 µM (inactive) | 10.5 µM (inactive) | 7.6 µM | 8.71 µM (inactive) | 21 µM (inactive) | 9.46 µM (inactive) | 8.39 µM (inactive) | 35 µM (inactive) | 18.8 µM (inactive) | 13.9 µM (inactive) | 14.1 µM (inactive) | 9.98 µM (inactive) | 24.6 µM (inactive) | 15.2 µM (inactive) | 27.9 µM (inactive) | 12.9 µM (inactive) | 7.06 µM (inactive)
O=c1ccn(CC2(CO)CC(Cc3ccccc3)C2)c(=O)[nH]1 (stereo not drawn) | > 100 µM (inactive) | > 100 µM (inactive) | > 100 µM (inactive) | > 100 µM (inactive) | > 100 µM (inactive) | > 100 µM | > 100 µM (inactive) | > 100 µM (inactive) | > 100 µM (inactive) | > 100 µM (inactive) | > 100 µM (inactive) | > 100 µM (inactive) | > 100 µM (inactive) | > 100 µM (inactive) | > 100 µM (inactive) | > 100 µM (inactive) | > 100 µM (inactive) | > 100 µM (inactive) | > 100 µM (inactive) | > 100 µM (inactive)
COP(=O)(OC)[C@H](O)[C@H]1C[C@@H]1c1ccccc1 | > 100 µM (inactive) | > 100 µM (inactive) | > 100 µM (inactive) | > 100 µM (inactive) | – | > 100 µM | > 100 µM (inactive) | > 100 µM (inactive) | > 100 µM (inactive) | > 100 µM (inactive) | > 100 µM (inactive) | > 100 µM (inactive) | > 100 µM (inactive) | > 100 µM (inactive) | > 100 µM (inactive) | > 100 µM (inactive) | > 100 µM (inactive) | > 100 µM (inactive) | > 100 µM (inactive) | > 100 µM (inactive)
COP(=O)(OC)C(Cc1cn(C(C)=O)c2ccccc12)C(=O)O (stereo not drawn) | > 100 µM (inactive) | > 100 µM (inactive) | – | > 100 µM (inactive) | > 100 µM (inactive) | > 100 µM | > 100 µM (inactive) | – | > 100 µM (inactive) | > 100 µM (inactive) | – | > 100 µM (inactive) | > 100 µM (inactive) | > 100 µM (inactive) | > 100 µM (inactive) | > 100 µM (inactive) | > 100 µM (inactive) | > 100 µM (inactive) | > 100 µM (inactive) | –
O=C(O)CSCc1cc2c(O)c(c1)Cc1cc(CSCC(=O)O)cc(c1O)Cc1cc(CSCC(=O)O)cc(c1O)Cc1cc(CSCC(=O)O)cc(c1O)C2 | > 100 µM (inactive) | > 100 µM (inactive) | > 100 µM (inactive) | > 100 µM (inactive) | > 100 µM (inactive) | > 100 µM | > 100 µM (inactive) | > 100 µM (inactive) | > 100 µM (inactive) | > 100 µM (inactive) | > 100 µM (inactive) | > 100 µM (inactive) | > 100 µM (inactive) | > 100 µM (inactive) | > 100 µM (inactive) | > 100 µM (inactive) | > 100 µM (inactive) | > 100 µM (inactive) | > 100 µM (inactive) | –
CC(=O)O[C@H]1[C@@H]2OC(=O)[C@@](O)(CC3CCCO3)[C@@H]2CC(=O)[C@](C)(O)CC/C=C(\C)CCC[C@@H]1C (stereo partly drawn) | > 100 µM (inactive) | 19.9 µM (inactive) | 52.8 µM (inactive) | > 100 µM (inactive) | – | 34.3 µM | – | 67.6 µM (inactive) | 20.8 µM (inactive) | – | 41.2 µM (inactive) | – | 25.8 µM (inactive) | 52.8 µM (inactive) | 77.3 µM (inactive) | 20.3 µM (inactive) | – | 22.5 µM (inactive) | 69.8 µM (inactive) | 67.3 µM (inactive)
O=P1(N2CCOCC2)OCCO1 | > 100 µM (inactive) | > 100 µM (inactive) | > 100 µM (inactive) | > 100 µM (inactive) | > 100 µM (inactive) | > 100 µM | – | > 100 µM (inactive) | > 100 µM (inactive) | > 100 µM (inactive) | > 100 µM (inactive) | > 100 µM (inactive) | > 100 µM (inactive) | > 100 µM (inactive) | > 100 µM (inactive) | > 100 µM (inactive) | – | > 100 µM (inactive) | > 100 µM (inactive) | > 100 µM (inactive)
CCOC(=O)/C(C(=O)Nc1ccc(Cl)cc1)=C(/N)N1CCCC1 | 64.4 µM (inactive) | > 100 µM (inactive) | > 100 µM (inactive) | > 100 µM (inactive) | 94 µM (inactive) | > 100 µM | > 100 µM (inactive) | > 100 µM (inactive) | > 100 µM (inactive) | 71.6 µM (inactive) | > 100 µM (inactive) | > 100 µM (inactive) | > 100 µM (inactive) | 69.3 µM (inactive) | > 100 µM (inactive) | > 100 µM (inactive) | > 100 µM (inactive) | > 100 µM (inactive) | > 100 µM (inactive) | 42 µM (inactive)
COc1cc(C2c3cc4c(cc3[C@@H](Nc3ccc(N5CCOCC5)cc3)C3COC(=O)[C@H]23)OCO4)cc(OC)c1O (stereo partly drawn) | 1.01 µM (active) | 0.4 µM (active) | 1.97 µM (inactive) | 1.99 µM (inactive) | 1.25 µM (inactive) | 0.993 µM | 0.274 µM (active) | – | 1.01 µM (active) | 0.0207 µM (active) | 1.89 µM (inactive) | – | 1.41 µM (inactive) | 9.84 µM (inactive) | 0.296 µM (active) | 3.82 µM (inactive) | 0.738 µM (active) | 1.5 µM (inactive) | 0.214 µM (active) | 0.525 µM (active)
Cc1ccc2c(O)cc(-c3cc(C)sc3C)nc2n1 | 4.78 µM (inactive) | 14.4 µM (inactive) | 10.8 µM (inactive) | 4.05 µM (inactive) | 3.84 µM (inactive) | 1.46 µM | 6.07 µM (inactive) | 3.3 µM (inactive) | 5.08 µM (inactive) | 4.14 µM (inactive) | 3.56 µM (inactive) | 2.25 µM (inactive) | 2.07 µM (inactive) | > 36.6 µM (inactive) | 1.94 µM (inactive) | 5.53 µM (inactive) | 3.77 µM (inactive) | 1.67 µM (inactive) | 3.69 µM (inactive) | 4.88 µM (inactive)
